Values joined by “and” are separate entries in the source; they are usually repeats but may differ in a detail not shown here. Identical values can stand only once. Marks after values point to notes of the source that are not given here.
What was measured:
V-ATPase [1] = molecular target: T1, V-ATPase (Homo sapiens, UniProt P27449); details: binding to V-ATPase; Drose and Altendorf, 1997; cited from earlier work
[2] = system: LoVo (human colon adenocarcinoma); assay: Clonogenic survival (surviving fraction) of LoVo cells after radiation or chemotherapeutic agent; type: cell-based
Procedure: MCF-7 (human breast adenocarcinoma), LoVo (human colon adenocarcinoma) and LNCaP (human prostate carcinoma) were obtained from the American Type Culture Collection. Cells were maintained as described in Paglin et al., 1997, Biochem. Biophs. Res. Comm. 237:678-684). Irradiation was carried out 48 hours post-plating (T0) at room temperature using a Cs-137 irradiator (Sheperd Mark-I, model 68, SN643) at a dose rate of 2.43-2.32 Gy/min. Bovine aortic endothelial cells were grown and treated with H2O2 as described in Haimovitz-Friedman et al., 1994, J. Exp. Med. 180:525-535 and Verhij et al., 1996, Nature 380:75-79. Phorbol 12-myristate 13-acetate (PMA; Alexis Biochemicals Corp., San Diego, Calif.) was dissolved in dimethyl sulfoxide (DMSO) and added to cells for the duration of one hour. The final DMSO concentration was 0.03%. The cells were then rinsed with warm growth medium before being returned to the incubator for an additional 48 hours.
Cells were plated in growth medium at a density of 30-90 cells per square centimeter and irradiated 22 hours later. Each experimental condition was done in quintet or triplicate. Cells were irradiated at room temperature in Cs-137 Irradiator (Sheperd Mark-I, Model 68, SN 643) at a rate of 2.43-2.32 Gy/min. […] For determination of their red to green ratio, colonies were processed as described above. For determination of surviving fractions cells were stained with crystal violet and colonies containing 50 cells or more were counted with a dissecting microscope. The surviving fraction was defined as the ratio between the plating efficiencies of irradiated and non-irradiated cells and was calculated at each dose level according to Hall and Phill (1994, […] for the Radiologist, 4th Edition, J. Lippincott Co., Philadelphia).

Capan-1 xenograft tumor = details: subcutaneous, doses smaller than 1 mg/kg/day; cited from earlier work
[3] = system: acidic vesicular organelles (AVO) in MCF-7 cells; assay: Mean red/green fluorescence ratio in acridine orange stained cells by flow cytometry; type: cell-based, human; details: 500 nM bafilomycin A1 30 minutes prior to acridine orange
Procedure: bFGF was added to cultures of MCF-7 cells at 10 ng/ml for 48 hours. TNF was added at 2.3 nM for 48 hours. PMA was added for 1 hour at a concentration of 30 nM, followed by rinsing of the cells and incubation for an additional 48 hours.
Cell staining was performed according to standard techniques (Arvan et al., 1984, J. Bio. Chem. 259:13567-13572; Mains and May, 1988, J. Biol. Chem. 263:7887-7894; Traganos and Darzynkiewicz, Methods in Cell Biology 41:185-194, Academic Press). Acridine orange (Polysciences, Warrington, Pa.) was added to a final concentration of 1 μg/ml for 15 minutes. Bafilomycin A1 (Sigma Chemical Co., St. Louis, Mo.) was dissolved in DMSO and added to the cells 30 minutes prior to the addition of acridine orange. LysoSensor Blue DND-167 (Molecular Probes, Eugene, Oreg.) at a final concentration of 10 μM was added for 8 minutes. Pictures were obtained with a fluorescence microscope (Olympus BH-2 RFCA), equipped with a mercury-100 W lamp, 490 nm band pass blue excitation filters, 500 nm dichroic mirror and a 515 nm long pass barrier filter. Images of control and irradiated cells were recorded on Kodak Elite II 100 ASA film for color slides by 4 seconds exposure.
In acridine orange stained cells the cytoplasm and nucleolus fluoresce bright green and dim red, while acidic compartments fluoresce bright red (Mains and May, 1988, J. Biol. Chem. 263:7887-7894; Traganos and Darzynkiewicz, Methods in Cell Biology Vol. 41, pp. 185-194, Academic Press). The intensity of the red fluorescence is proportional to the degree of acidity and/or the volume of the cellular acidic compartment. Therefore, by comparing the mean red/green fluorescence ratio within different cell populations, a change in the degree of acidity and/or the fractional volume of the cellular acidic compartment could be measured. Cells were stained with acridine orange for […], removed from the plate with trypsin-EDTA and collected in phenol red-free growth medium. Green (510-530 nm) and red (>650 nm) Fluoresence emission from 10,000 cells illuminated with blue (488 nm) excitation light was measured with a FACSCalibur from Becton Dickinson (San Jose, Calif.) using CellQuest software. The red to green fluorescence ratio for individual cells was calculated using FlowJo software (TREE STAR, Inc., San Carlos, Calif.). To control for possible effect of trypsinization on the measured red to green fluorescence ratio, the ratios were compared by flow cytometry with those obtained with a Laser Scanning Microscope (LSM510 from Zeiss). Stained cells, grown on cover glass, were illuminated with a 488 nm argon laser beam. The red (>650 nm) to green (505-545 nm) fluorescence ratio of an entire image was obtained using software LSM 510 version 2.01 SP2. These measurements yielded similar results to those obtained with flow cytometry. All determinations of red to green fluorescence ratio reported in this section were obtained via flow cytometry.

[4] = system: Capan-1 human pancreatic cancer cell line; details: Capan-1 in vitro; cited from earlier work
V-ATPase [5] = molecular target: T1, V-ATPase; details: Gagliardi et al., 1999; cited from earlier work
[6] = system: MCF-7 (human breast adenocarcinoma); assay: Clonogenic survival (surviving fraction) of MCF-7 cells after radiation or chemotherapeutic agent; type: cell-based
F and P-type ATPases = details: cited from earlier work

T1 sequence (P27449 whole entry): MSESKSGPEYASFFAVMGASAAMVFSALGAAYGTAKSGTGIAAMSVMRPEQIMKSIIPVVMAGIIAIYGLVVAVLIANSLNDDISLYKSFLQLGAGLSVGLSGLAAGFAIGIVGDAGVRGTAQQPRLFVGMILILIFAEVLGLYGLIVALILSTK

bafilomycin A1
Kd (V-ATPase [1]): 0.01 µM
decrease of survival of cells exposed to Adriamycin ([2]; 2 nM bafilomycin, 100 nM Adriamycin): 22%
decrease of survival ([2]; 2 nM bafilomycin, 3 Gy, Table 11 and Table 12): 43% and 24%
decrease of resistance to Adriamycin ([2]; 2 nM bafilomycin, Adriamycin 100 nM, 48 hours): 35%
decrease of survival ([2]; 2 nm bafilomycin A1, 2 Gy): 25%
decrease of survival ([2]; 2 nm bafilomycin A1, 3 Gy): 30%
Surviving Fraction 0 Gy ([2]; Table 11, Bafilomycin A1 2 nM): 1.14 ± 0.09
Surviving Fraction 3 Gy ([2]; Table 11, Bafilomycin A1 2 nM, 3 Gy): 0.24 ± 0.08
Surviving Fraction 0 Gy ([2]; Table 11, Bafilomycin A1 4 nM): 1.01 ± 0.03
Surviving Fraction 3 Gy ([2]; Table 11, Bafilomycin A1 4 nM, 3 Gy): 0.23 ± 0.02
Surviving Fraction 0 Gy ([2]; Table 11, Bafilomycin A1 8 nM): 0.84 ± 0.12
Surviving Fraction 3 Gy ([2]; Table 11, Bafilomycin A1 8 nM, 3 Gy): 0.19 ± 0.04
Surviving Fraction 0 Gy ([2]; Table 12, Bafilomycin 2 nM): 0.92 ± 0.05
Surviving Fraction 3 Gy ([2]; Table 12, Bafilomycin 2 nM, 3 Gy): 0.16 ± 0.01
Surviving Fraction 0 Gy ([2]; Table 12, Bafilomycin 4 nM): 0.84 ± 0.03
Surviving Fraction 3 Gy ([2]; Table 12, Bafilomycin 4 nM, 3 Gy): 0.08 ± 0.02
Surviving Fraction 2 nM Bafilomycin ([2]; Table 13, 2 nM Bafilomycin, Dose 0 Gy): 0.78 ± 0.05
Surviving Fraction 2 nM Bafilomycin ([2]; Table 13, 2 nM Bafilomycin, Dose 2 Gy): 0.24 ± 0.03
Surviving Fraction 2 nM Bafilomycin ([2]; Table 13, 2 nM Bafilomycin, Dose 3 Gy): 0.11 ± 0.03
Surviving Fraction 2 nM Bafilomycin ([2]; Table 14, 2 nM Bafilomycin + Adriamycin 50 nM): 0.73 ± 0.08
Surviving Fraction 2 nM Bafilomycin ([2]; Table 14, 2 nM Bafilomycin + Adriamycin 100 nM): 0.60 ± 0.05
Surviving Fraction 2 nM Bafilomycin ([2]; Table 14, 2 nM Bafilomycin + Adriamycin 150 nM): 0.38 ± 0.03
Surviving Fraction 2 nM Bafilomycin ([2]; Table 14, 2 nM Bafilomycin, Adriamycin 0 nM): 0.93 ± 0.05
survival, Adriamycin 100 nM ([2]; Table 17, Bafilomycin A1 2 nM + Adriamycin 100 nM, 48 hours): 0.65 ± 0.05
survival (head of column empty) ([2]; Table 17, Bafilomycin A1 2 nM alone, 48 hours): 0.86 ± 0.04
survival, Adriamycin 100 nM ([2]; Table 17, Bafilomycin A1 4 nM + Adriamycin 100 nM, 48 hours): 0.4 ± 0.01
survival (head of column empty) ([2]; Table 17, Bafilomycin A1 4 nM alone, 48 hours): 0.61 ± 0.04
cell survival, Bafilomycin (2 nM) ([2]; Table 19, Bafilomycin 2 nM + Etoposide 0.05 μg/ml): 0.59 ± 0.08
cell survival, Bafilomycin (2 nM) ([2]; Table 19, Bafilomycin 2 nM, Etoposide 0 μg/ml): 1.16 ± 0.07
decrease of survival in the presence of etoposide ([2]; bafilomycin 2 nM, etoposide 0.05 μg/ml): 25%
effect on Capan-1 xenograft tumor (Capan-1 xenograft tumor): apoptotic death of Capan-1 cells in their xenograft tumor and overall shrinkage of the tumors
radiation-induced increase of mean red/green fluorescence ratio ([3]; 24 hours following 10 Gy): inhibited its radiation-induced increase
mean red/green fluorescence ratio in unirradiated cells ([3]; unirradiated): decreased
concentrations reported to induce apoptosis [4]: greater than 10 nM
concentration range that inhibits V-H+-ATPase activity without affecting F or P-type ATPases (V-ATPase [5]): nM range
survival, column Adriamycin ([6]; Table 15, Bafilomycin 2 nM + 100 nM adriamycin, average of two plates): (0.56; 0.58)0.57*
cell survival, Bafilomycin A1 (2 nM) ([6]; Table 18, Bafilomycin A1 2 nM, Etoposide 0 μg/ml): 0.9 ± 0.09
decrease of survival in the presence of etoposide ([6]; bafilomycin 2 nM, etoposide 0.05 μg/ml, Table 18): 54%
concentration range at which F and P-type ATPases activities are affected (F and P-type ATPases): μM range

From US6982252B2, “Inhibition of vacuolar proton ATPase activity and/or the modulation of acidic organelle function sensitizes cells to radiation, chemotherapy and biological agents” (Memorial Sloan-Kettering Cancer Center, priority 2000, dated 2006)
